Results on 3 molecules are retold here after paper PMC7442216 (Journal of medicinal chemistry, 2019).

The assay deals with HIV-1 NL4-3 NanoLuc-sec infection of MT4 cells. The experiment in a line: MOA comparison: antiviral activity in the presence or absence of enzastaurin. The class given is cell-based. As to conditions: for HIV-1 inhibitory activity in the presence of enzastaurin: enzastaurin 1 μM, 1 at 0.6 nM, 13e at 2 nM.

Take `C=C(C)[C@]12C[C@@H](COC(=O)c3ccccc3)[C@@]34OC5(O[C@@H]1[C@@H]3[C@@H]1O[C@]1(CO)[C@@H](O)[C@@]1(O)[C@H]4[C@H]([C@H](C)[C@@H]1OC(=O)c1ccccc1)[C@H](C)CCCCCC[C@H]5O)O2` [Compound 1, gnidimacrin]: the “HIV-1 inhibitory activity in the presence of enzastaurin” value is recorded as “largely abrogated”.
As for `C=C(C)[C@]12C[C@@H](COC(=O)c3ccccc3)[C@@]34OC5(O[C@@H]1[C@@H]3[C@@H]1O[C@]1(CO)[C@@H](O)[C@@]1(O)[C@H]4[C@H]([C@H](C)[C@@H]1OC(=O)c1ccncc1)[C@H](C)CCCCCC[C@H]5O)O2` [Compound 13e, 3-O-(4-Pyridinylcarbonyl) Stelleramacrin], the “HIV-1 inhibitory activity in the presence of enzastaurin” value is “able to abrogate”. Also, where the note is “in this assay”, the “antiviral potency relative to 1” value is recorded as “approximately threefold weaker”.
With `Cn1cc(C2=C(c3cn(C4CCN(Cc5ccccn5)CC4)c4ccccc34)C(=O)NC2=O)c2ccccc21` [enzastaurin, reference compound], the “antagonism of GM's HIV-1 inhibitory activity” value (enzastaurin at 1 μM, GM at 0.6 nM) was “effectively antagonized”.
